Measured values from patent publication US8470837B2, “MAPK/ERK kinase inhibitors” (Takeda Pharmaceutical Company Limted, priority 2006, dated 2013).

Each compound was assayed against MEK1 (Homo sapiens, UniProt Q02750, DEL30-49/S218E/S222D) (assay: MEK1 inhibition, fluorescence polarization assay with IMAP beads (ERK1 / FI-Erktide coupled)).
Chain of MEK1 (Q02750 with tags, fused parts or gaps DEL30-49/S218E/S222D): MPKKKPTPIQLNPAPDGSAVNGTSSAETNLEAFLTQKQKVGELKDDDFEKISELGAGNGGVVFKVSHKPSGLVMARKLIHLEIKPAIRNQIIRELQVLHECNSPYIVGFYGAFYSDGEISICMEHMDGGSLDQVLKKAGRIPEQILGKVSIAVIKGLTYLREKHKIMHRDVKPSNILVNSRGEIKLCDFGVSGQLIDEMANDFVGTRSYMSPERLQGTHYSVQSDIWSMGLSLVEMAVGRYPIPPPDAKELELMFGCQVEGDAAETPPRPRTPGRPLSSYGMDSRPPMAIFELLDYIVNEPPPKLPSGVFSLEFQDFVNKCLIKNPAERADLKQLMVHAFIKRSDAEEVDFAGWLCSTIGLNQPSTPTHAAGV

SMILES	IC50 [nM]
Cc1c(Nc2ccccc2F)c2c(=O)n(CCO)cnc2n(C)c1=O [Example 15, 5-(2-Fluorophenylamino)-3-(2-hydroxyethyl)-6,8-dimethylpyrido[2,3-d]pyrimidine-4,7(3H,8H)-dione]	≥ 16
Cn1c(=O)cc(Nc2ccc(Br)cc2Cl)c2c(=O)n(CCCO)cnc21 [Example 35, 5-(4-Bromo-2-chlorophenylamino)-3-(3-hydroxypropyl)-8-methylpyrido[2,3-d]pyrimidine-4,7(3H,8H)-dione]	≥ 16
Cn1c(=O)c(F)c(Nc2ccc(I)cc2F)c2c(=O)n(C[C@@H](O)CO)cnc21 [Example 18, (R)-3-(2,3-Dihydroxypropyl)-6-fluoro-5-(2-fluoro-4-iodophenylamino)-8-methylpyrido[2,3-d]pyrimidine-4,7(3H,8H)-dione]	≤ 5
Cc1c(Nc2ccc(I)cc2F)c2c(=O)n(CCO)cnc2n(C)c1=O [Example 14, 5-(2-Fluoro-4-iodophenylamino)-3-(2-hydroxyethyl)-6,8-dimethylpyrido[2,3-d]pyrimidine-4,7(3H,8H)-dione]	≤ 5
C#Cc1ccc(Nc2c(F)c(=O)n(C)c3ncn(C[C@@H](O)CO)c(=O)c23)c(F)c1 [Example 22, (R)-3-(2,3-dihydroxypropyl)-5-(4-ethynyl-2-fluorophenylamino)-6-fluoro-8-methylpyrido[2,3-d]pyrimidine-4,7(3H,8H)-dione]	≤ 5
CC(O)Cn1cnc2c(c(Nc3ccc(I)cc3F)cc(=O)n2C)c1=O (centres unmarked) [Example 38, 5-(2-Fluoro-4-iodophenylamino)-3-(2-hydroxypropyl)-8-methylpyrido[2,3-d]pyrimidine-4,7(3H,8H)-dione]	≥ 16
C#Cc1ccc(Nc2c(F)c(=O)n(C)c3ncn(C[C@H](O)CO)c(=O)c23)c(F)c1 [Example 21, (S)-3-(2,3-Dihydroxypropyl)-5-(4-ethynyl-2-fluorophenylamino)-6-fluoro-8-methylpyrido[2,3-d]pyrimidine-4,7(3H,8H)-dione]	5 to 15
Cc1c(Nc2ccc(Br)cc2F)c2c(=O)n(C[C@H](O)CO)cnc2n(C)c1=O [Example 9, (S)-5-(4-Bromo-2-fluorophenylamino)-3-(2,3-dihydroxypropyl)-6,8-dimethylpyrido[2,3-d]pyrimidine-4,7(3H,8H)-dione]	≥ 16
Cn1c(=O)c(Cl)c(Nc2ccc(I)cc2F)c2c(=O)n(CCCO)cnc21 [Example 32, 6-Chloro-5-(2-fluoro-4-iodophenylamino)-3-(3-hydroxypropyl)-8-methylpyrido[2,3-d]pyrimidine-4,7(3H,8H)-dione]	≤ 5
C#Cc1ccc(Nc2c(C)c(=O)n(C)c3ncn(C[C@H](O)CO)c(=O)c23)c(F)c1 [Example 44, (S)-3-(2,3-Dihydroxypropyl)-5-(4-ethynyl-2-fluorophenylamino)-6,8-dimethylpyrido[2,3-d]pyrimidine-4,7(3H,8H)-dione]	5 to 15
Cn1c(=O)cc(Nc2ccc(Br)cc2F)c2c(=O)n(CCCO)cnc21 [Example 33, 5-(4-Bromo-2-fluorophenylamino)-3-(3-hydroxypropyl)-8-methylpyrido[2,3-d]pyrimidine-4,7(3H,8H)-dione]	≥ 16
Cc1c(Nc2ccc(I)cc2F)c2c(=O)n(C(CO)CO)cnc2n(C)c1=O [Example 43, 3-(1,3-Dihydroxypropan-2-yl)-5-(2-fluoro-4-iodophenylamino)-6,8-dimethylpyrido[2,3-d]pyrimidine-4,7(3H,8H)-dione]	5 to 15
Cn1c(=O)cc(Nc2ccc(I)cc2F)c2c(=O)n(CCCO)cnc21 [Example 31, 5-(2-Fluoro-4-iodophenylamino)-3-(3-hydroxypropyl)-8-methylpyrido[2,3-d]pyrimidine-4,7(3H,8H)-dione]	≤ 5
Cn1c(=O)c(Cl)c(Nc2ccc(Br)cc2F)c2c(=O)n(C[C@@H](O)CO)cnc21 [Example 29, (R)-5-(4-Bromo-2-fluorophenylamino)-6-chloro-3-(2,3-dihydroxypropyl)-8-methylpyrido[2,3-d]pyrimidine-4,7(3H,8H)-dione]	5 to 15
Cc1c(Nc2ccc(Br)cc2F)c2c(=O)n(C[C@@H](O)CO)cnc2n(C)c1=O [Example 10, (R)-5-(4-Bromo-2-fluorophenylamino)-3-(2,3-dihydroxypropyl)-6,8-dimethylpyrido[2,3-d]pyrimidine-4,7(3H,8H)-dione]	≥ 16
CN(C)CCn1cnc2c(c(Nc3ccc(I)cc3F)cc(=O)n2C)c1=O [Example 37, 3-(2-(Dimethylamino)ethyl)-5-(2-fluoro-4-iodophenylamino)-8-methylpyrido[2,3-d]pyrimidine-4,7(3H,8H)-dione]	≥ 16
Cn1c(=O)c(Cl)c(Nc2ccc(Br)cc2F)c2c(=O)n(CCCO)cnc21 [Example 34, 5-(4-Bromo-2-fluorophenylamino)-6-chloro-3-(3-hydroxypropyl)-8-methylpyrido[2,3-d]pyrimidine-4,7(3H,8H)-dione]	5 to 15
Cn1c(=O)c(F)c(Nc2ccc(NS(C)(=O)=O)cc2F)c2c(=O)n(C[C@@H](O)CO)cnc21 [Example 23, (R)—N-(4-(3-(2,3-Dihydroxypropyl)-6-fluoro-8-methyl-4,7-dioxo-3,4,7,8-tetrahydropyrido[2,3-d]pyrimidin-5-ylamino)-3-fluorophenyl)methanesulfonamide]	≥ 16
Cn1c(=O)c(Cl)c(Nc2ccc(Br)cc2Cl)c2c(=O)n(CCCO)cnc21 [Example 36, 5-(4-Bromo-2-chlorophenylamino)-6-chloro-3-(3-hydroxypropyl)-8-methylpyrido[2,3-d]pyrimidine-4,7(3H,8H)-dione]	≥ 16
Cn1c(=O)c(F)c(Nc2ccc(I)cc2F)c2c(=O)n(C(CO)CO)cnc21 [Example 25, 3-(1,3-Dihydroxypropan-2-yl)-6-fluoro-5-(2-fluoro-4-iodophenylamino)-8-methylpyrido[2,3-d]pyrimidine-4,7(3H,8H)-dione]	≤ 5
Cn1c(=O)c(F)c(Nc2ccc(I)cc2F)c2c(=O)n(C[C@H](O)CO)cnc21 [Example 19, (S)-3-(2,3-Dihydroxypropyl)-6-fluoro-5-(2-fluoro-4-iodophenylamino)-8-methylpyrido[2,3-d]pyrimidine-4,7(3H,8H)-dione]	≤ 5
C#Cc1ccc(Nc2c(C)c(=O)n(C)c3ncn(C[C@@H](O)CO)c(=O)c23)c(F)c1 [Example 16, (R)-3-(2,3-Dihydroxypropyl)-5-(4-ethynyl-2-fluorophenylamino)-6,8-dimethylpyrido[2,3-d]pyrimidine-4,7(3H,8H)-dione]	5 to 15
CC(O)Cn1cnc2c(c(Nc3ccc(I)cc3F)c(Cl)c(=O)n2C)c1=O (centres unmarked) [Example 40, 6-Chloro-5-(2-fluoro-4-iodophenylamino)-3-(2-hydroxypropyl)-8-methylpyrido[2,3-d]pyrimidine-4,7(3H,8H)-dione]	5 to 15
Cn1c(=O)cc(Nc2ccc(I)cc2F)c2c(=O)n(Cc3ccccc3)cnc21 [Example 42, 3-Benzyl-5-(2-fluoro-4-iodophenylamino)-8-methylpyrido[2,3-d]pyrimidine-4,7(3H,8H)-dione]	≥ 16
Cn1c(=O)c(Cl)c(Nc2ccc(I)cc2F)c2c(=O)n(C[C@H](O)CO)cnc21 [Example 7, (S)-6-Chloro-3-(2,3-dihydroxypropyl)-5-(2-fluoro-4-iodophenylamino)-8-methylpyrido[2,3-d]pyrimidine-4,7(3H,8H)-dione]	≤ 5
Cn1c(=O)c(Cl)c(Nc2ccc(I)cc2F)c2c(=O)n(CCO)cnc21 [Example 30, 6-Chloro-5-(2-fluoro-4-iodophenylamino)-3-(2-hydroxyethyl)-8-methylpyrido[2,3-d]pyrimidine-4,7(3H,8H)-dione]	≤ 5
Cn1c(=O)c(F)c(Nc2ccc(I)cc2F)c2c(=O)n(OC[C@H](O)CO)cnc21 [Example 28, (R)-3-(2,3-Dihydroxypropoxy)-6-fluoro-5-(2-fluoro-4-iodophenylamino)-8-methylpyrido[2,3-d]pyrimidine-4,7(3H,8H)-dione]	≤ 5
Cc1c(Nc2ccc(Br)cc2F)c2c(=O)n(CCO)cnc2n(C)c1=O [Example 11, 5-(4-Bromo-2-fluorophenylamino)-3-(2-hydroxyethyl)-6,8-dimethylpyrido[2,3-d]pyrimidine-4,7(3H,8H)-dione]	≥ 16
COC(=O)Cn1cnc2c(c(Nc3ccc(I)cc3F)cc(=O)n2C)c1=O [Example 3, Methyl 2-(5-(2-fluoro-4-iodophenylamino)-8-methyl-4,7-dioxo-7,8-dihydropyrido[2,3-d]pyrimidin-3(4H)-yl)acetate]	≥ 16
